Data as given in patent US12612412B2, “Antiviral heterocyclic compounds” (Enanta Pharmaceuticals, Inc., priority 2021, dated 2026).
Like-named read-outs stand apart in the source and are kept apart here.

Tests used:
[1] = tested on: HMPV clinical isolate TN/1501/A1; experiment: HMPV antiviral assay Method-B (clinical isolate TN/1501/A1 in LLC-MK2 cells, ATP-Lite readout); assay type: cell-based, Human metapneumovirus (HMPV); settings: human metapneumovirus, LLC-MK2, 144 h, hMPV WT1501 (clinical isolate TN/1501/A1), 6 days
In short: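 EC50 derived by four-parameter logistic fit of percent cell health, measured by ATP-Lite luminescence and normalised to virus-only and uninfected-cell controls. Compounds run in duplicate from 10 μM top, 3-fold, 10 points. Infection: LLC-MK2 cells, MOI 0.014, 2 μg/mL final TPCK-trypsin, serum-free, 6 days at 37° C.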

[2] = tested on: genotype A, "Long" strain RSV; experiment: RSV-A assay (CPE protection in Hep-2 cells, ATPlite readout); assay type: cell-based, Human respiratory syncytial virus (HRSV); settings: human respiratory syncytial virus, MOI 0.1, CPE protection
In short: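 Hep-2 cells (8,000/well) were treated with 2-fold serial compound dilutions in duplicate and infected with RSV at MOI 0.1. After 5 days, protection from cytopathic effect was measured as cell viability by ATPlite luminescence, and EC50 values were derived.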

[3] = genotype A “Long” strain RSV, read-out: Human RSV-A (“Long”)
[4] = RSV-A Long strain, read-out: Human RSV-A (“Long”) EC50

COc1cc(C(=O)NC[C@](O)(c2cc3c(c(-c4ccc(F)cc4Cl)n2)OC[C@]3(C)C(N)=O)C2(F)CC2)cc2cn(C3CC3)nc12 [Example 732]
EC50 [1]: < 0.5 µM | EC50 [2, 3]: < 0.2 µM

COc1cc(C(=O)NC[C@](O)(c2cc3c(c(-c4cc(Cl)c(F)cc4F)n2)OC[C@]3(C)C(N)=O)C2(F)CC2)cc2cn(C3CC3)nc12 [Example 758]
EC50 [1]: < 0.5 µM | EC50 [2, 3]: < 0.2 µM

C[C@]1(C(N)=O)COc2c1cc([C@@](O)(CNC(=O)c1cc(F)c(F)c(NC(=O)NC3CC3)c1)C(F)(F)F)nc2-c1ccc(F)cc1 [Example 624]
EC50 [1]: > 0.5 µM | EC50 [2, 3]: < 0.2 µM

COc1cc(C(=O)NC[C@](O)(c2cc3c(c(-c4csc5c(F)cccc45)n2)OC[C@]3(C)C(N)=O)C(F)(F)F)cc2cn(C3CC3)nc12 [Example 936]
EC50 [1]: < 0.5 µM | EC50 [2, 4]: < 0.2 µM

COc1cc(C(=O)NC[C@](O)(c2cc3c(c(-c4cccc(Cl)c4F)n2)OC[C@]3(C)C(N)=O)C(F)(F)F)cc2cn(C3CC3)nc12 [Example 922]
EC50 [1]: < 0.5 µM | EC50 [2, 4]: < 0.2 µM

C[C@]1(C(N)=O)COc2c1cc([C@@](O)(CNC(=O)c1cc(F)c3nc(N)sc3c1)C(F)(F)F)nc2-c1ccc2c(c1)OC(F)(F)O2 [Example 698]
EC50 [1]: > 0.5 µM | EC50 [2, 3]: < 0.2 µM

C[C@]1(C(N)=O)COc2c1cc([C@@](O)(CNC(=O)c1cc(Cl)c3nn(C4(F)CC4)cc3c1)C1CC1)nc2-c1ccc2c(c1)OC(F)(F)O2 [Example 849]
EC50 [1]: < 0.5 µM | EC50 [2, 4]: < 0.2 µM

COc1cc(-c2nc([C@](O)(CNC(=O)c3cc(OC)c4nn(C5CC5)cc4c3)C(F)(F)F)cc3c2OC[C@]3(C)C(N)=O)ccc1F [Example 913]
EC50 [1]: > 0.5 µM | EC50 [2, 4]: > 0.2 µM

Cc1cnc2c(Nc3cnccn3)cc(C(=O)NC[C@](O)(c3cc4c(c(-c5ccc6c(c5)OC(F)(F)O6)n3)OC[C@]4(C)C(N)=O)C3CC3)cc2c1 [Example 773]
EC50 [1]: < 0.5 µM | EC50 [2, 3]: < 0.2 µM

COc1cc(C(=O)NC[C@](O)(c2cc3c(c(-c4ccc(F)c(F)c4F)n2)OC[C@]3(C)C(N)=O)C2CC2)cc2cc(Cl)c(C)nc12 [Example 526]
EC50 [1]: < 0.5 µM | EC50 [2, 3]: < 0.2 µM

COc1cc(C(=O)NC[C@](O)(c2nc(-c3ccc(F)cc3)c3c(c2F)[C@](C)(C(N)=O)CO3)C(F)(F)F)cc2cc(Cl)c(C)nc12 [Example 854]
EC50 [1]: > 0.5 µM | EC50 [2, 4]: > 0.2 µM

COc1cc(C(=O)NC[C@](O)(c2cc3c(c(-c4ccc(F)cc4Cl)n2)OC[C@]3(C)C(N)=O)C(F)(F)F)cc2cc(Cl)c(C)nc12 [Example 509]
EC50 [1]: < 0.5 µM | EC50 [2, 3]: < 0.2 µM

COc1cc(C(=O)NC[C@](O)(c2cc3c(c(-c4ccc(F)cc4Cl)n2)OC[C@]3(C)C(N)=O)C(F)(F)F)cc2cc(C3CC3)nn12 [Example 510]
EC50 [1]: < 0.5 µM | EC50 [2, 3]: < 0.2 µM

C[C@]1(C(N)=O)COc2c1cc([C@@](O)(CNC(=O)c1cc(F)c3nn(C4CC4)cc3c1)C1CC1)nc2-c1ccc2c(c1)OC(F)(F)O2 [Example 545]
EC50 [1]: < 0.5 µM | EC50 [2, 3]: < 0.2 µM

COc1cc(C(=O)NC[C@](O)(c2cc3c(c(-c4ccc5c(c4)OC(F)(F)O5)n2)OC[C@]3(C)C(N)=O)C(F)(F)F)cc2cn(C3CC3)nc12 [Example 893]
EC50 [1]: < 0.5 µM | EC50 [2, 4]: < 0.2 µM

COc1cc(C(=O)NC[C@](O)(c2cc3c(c(-c4cnc(C(F)(F)F)s4)n2)OC[C@]3(C)C(N)=O)C(F)(F)F)cc2cn(C3CC3)nc12 [Example 950]
EC50 [1]: > 0.5 µM | EC50 [2, 4]: < 0.2 µM

COc1cc(C(=O)NC[C@](O)(c2cc3c(c(-c4ccc(F)cc4Cl)n2)OC[C@]3(C)C(N)=O)C(F)(F)F)cc2cc(Br)cnc12 [Example 521]
EC50 [1]: < 0.5 µM | EC50 [2, 3]: < 0.2 µM

C[C@]1(C(N)=O)COc2c1cc([C@@](O)(CNC(=O)c1ccc3nn(C4CC4)cc3c1)C1CC1)nc2-c1cc(Br)c(F)cc1F [Example 1095]
EC50 [1]: < 0.5 µM | EC50 [2, 4]: < 0.2 µM

Cc1nc2c(OC3CC3)cc(C(=O)NC[C@](O)(c3cc4c(c(-c5ccc(F)c(F)c5Cl)n3)OC[C@]4(C)C(N)=O)C(F)(F)F)cc2cc1Cl [Example 777]
EC50 [1]: < 0.5 µM | EC50 [2, 3]: < 0.2 µM

Cc1cnc2c(OC(F)F)cc(C(=O)NC[C@](O)(c3cc4c(c(-c5cc(Cl)c(F)cc5F)n3)OC[C@]4(C)C(N)=O)C3CC3)cc2c1 [Example 665]
EC50 [1]: < 0.5 µM | EC50 [2, 3]: < 0.2 µM

C[C@]1(C(N)=O)COc2c1cc([C@@](O)(CNC(=O)c1cc(F)c3nc(C4CC4)cn3c1)C1CC1)nc2-c1ccc2c(c1)OC(F)(F)O2 [Example 549]
EC50 [1]: < 0.5 µM | EC50 [2, 3]: < 0.2 µM

COc1cc(C(=O)NC[C@](O)(c2cc3c(c(-c4ccc(F)c(Cl)c4F)n2)OC[C@]3(C)C(N)=O)C(F)(F)F)cc2cn(C3CC3)nc12 [Example 930]
EC50 [1]: < 0.5 µM | EC50 [2, 4]: < 0.2 µM

COc1cc(C(=O)NC[C@](O)(c2cc3c(c(-c4csc5c(F)cccc45)n2)OC[C@]3(C)C(N)=O)C(F)(F)F)cc2cc(Br)cnc12 [Example 602]
EC50 [1]: < 0.5 µM | EC50 [2, 3]: < 0.2 µM

C[C@]1(C(N)=O)COc2c1cc([C@@](O)(CNC(=O)c1ccc3nn(C4CC4)cc3c1)C1CC1)nc2-c1ccc2c(c1)OC(F)(F)O2 [Example 831]
EC50 [1]: < 0.5 µM | EC50 [2, 4]: < 0.2 µM

COc1cc(C(=O)NC[C@](O)(c2cc3c(c(-c4ccc(F)c(C(F)(F)F)c4)n2)OC[C@]3(C)C(N)=O)C2CC2)cc2cn(C3CC3)nc12 [Example 871]
EC50 [1]: < 0.5 µM | EC50 [2, 4]: < 0.2 µM

COc1cc(C(=O)NC[C@](O)(c2cc3c(c(-c4ccc(F)c(Cl)c4)n2)OC[C@]3(C)C(N)=O)C2CC2)cc2cn(C3CC3)nc12 [Example 575]
EC50 [1]: < 0.5 µM | EC50 [2, 3]: < 0.2 µM

COc1ccc(C(=O)NC[C@](O)(c2cc3c(c(-c4ccc(F)c(Cl)c4)n2)OC[C@]3(C)C(N)=O)C(F)(F)F)cc1NC(=O)NC1CC1 [Example 627]
EC50 [1]: > 0.5 µM | EC50 [2, 3]: < 0.2 µM

Cc1cnc2c(OC(F)F)cc(C(=O)NC[C@](O)(c3cc4c(c(-c5ccc6c(c5)OC(F)(F)O6)n3)OC[C@]4(C)C(N)=O)C3(F)CC3)cc2c1 [Example 713]
EC50 [1]: < 0.5 µM | EC50 [2, 3]: < 0.2 µM

COc1cc(C(=O)NC[C@](O)(c2cc3c(c(-c4ccc(F)cc4)n2)OC[C@@]3(CF)C(N)=O)C2CC2)cc2cn(C3CC3)nc12 [Example 1063]
EC50 [1]: > 0.5 µM | EC50 [2, 4]: > 0.2 µM

COc1cc(C(=O)NC[C@](O)(c2cc3c(c(-c4ccc(F)c(Br)c4F)n2)OC[C@]3(C)C(N)=O)C2CC2)cc2cn(C3(F)CC3)nc12 [Example 802]
EC50 [1]: < 0.5 µM | EC50 [2, 3]: < 0.2 µM

COc1cc(C(=O)NC[C@](O)(c2cc3c(c(-c4ccc(F)cc4)n2)OC[C@]3(CF)C(N)=O)C2CC2)cc2cn(C3CC3)nc12 [Example 1064]
EC50 [1]: < 0.5 µM | EC50 [2, 4]: < 0.2 µM

COc1cc(C(=O)NC[C@](O)(c2cc3c(c(-c4ccc5c(c4)OC(F)(F)O5)n2)OC[C@]3(C)C(N)=O)C2CC2)cc2cc(Cl)c(C)nc12 [Example 825]
EC50 [1]: < 0.5 µM | EC50 [2, 3]: < 0.2 µM

COc1cc(C(=O)NC[C@](O)(c2cc3c(c(-c4ccc5c(c4)CCC5)n2)OC[C@]3(C)C(N)=O)C(F)(F)F)cc2cn(C3CC3)nc12 [Example 984]
EC50 [1]: > 0.5 µM | EC50 [2, 4]: > 0.2 µM

COc1cc(C(=O)NC[C@](O)(c2cc3c(c(-c4ccc(F)cc4)n2)OC[C@]3(C)C(N)=O)C2CC2)cc2cc(C3CC3)nnc12 [Example 763]
EC50 [1]: < 0.5 µM | EC50 [2, 3]: < 0.2 µM

COc1cc(C(=O)NC[C@](O)(c2cc3c(c(-c4cc(Cl)ccc4F)n2)OC[C@]3(C)C(N)=O)C2CC2)cc2cn(C3(Cl)CC3)nc12 [Example 842]
EC50 [1]: < 0.5 µM | EC50 [2, 4]: < 0.2 µM

COc1cc(C(=O)NC[C@](O)(c2cc3c(c(-c4cccc(F)c4Cl)n2)OC[C@]3(C)C(N)=O)C(F)(F)F)cc2cn(C(F)F)nc12 [Example 1120]
EC50 [1]: < 0.5 µM | EC50 [2, 4]: < 0.2 µM

C[C@]1(C(N)=O)COc2c1cc([C@@](O)(CNC(=O)c1cc(Cl)c3nn(C4CC4)cc3c1)C1CC1)nc2-c1cc(Cl)c(F)cc1F [Example 668]
EC50 [1]: < 0.5 µM | EC50 [2, 3]: < 0.2 µM

Cc1cnc2c(OC(F)F)cc(C(=O)NC[C@](O)(c3cc4c(c(-c5ccc(F)cc5Cl)n3)OC[C@]4(C)C(N)=O)C(F)(F)F)cc2c1 [Example 524]
EC50 [1]: < 0.5 µM | EC50 [2, 3]: < 0.2 µM

COc1cc(C(=O)NC[C@](O)(c2cc3c(c(-c4ccc5c(c4)OC(F)(F)O5)n2)OC[C@]3(C)C(N)=O)C2CC2)cc2cc(C)c(Cl)nc12 [Example 1074]
EC50 [1]: < 0.5 µM | EC50 [2, 4]: < 0.2 µM

Cc1cnc2c(Cl)cc(C(=O)NC[C@](O)(c3cc4c(c(-c5cccc(Br)c5F)n3)OC[C@]4(C)C(N)=O)C3CC3)cc2c1 [Example 1091]
EC50 [1]: < 0.5 µM | EC50 [2, 4]: < 0.2 µM
